A short description of the data set: Pharmacokinetic study in rats: plasma 2C-B after IV/PO 2C-B or PO 2C-B prodrugs. The note with it: for Tlast / AUC0-inf / AUC0-last / Cmax / T1/2 / AUC(0-t) / half-life / Tmax: analyte 2C-B in plasma; for AUC(0-t): AUC0-last.
[1] abbreviates: 2C-B dosed IV 1 mg/kg, male SD rats, individual animals, 1 mg/kg.
Where [2] appears, read: 2C-B dosed oral 5 mg/kg, male SD rats, individual animals, 5 mg/kg.
[3] abbreviates: 2C-B dosed oral 10 mg/kg, male SD rats, individual animals, 10 mg/kg.
Where [4] appears, read: male, Sprague-Dawley, rat, plasma, po, 5 mg/kg, 2C-B dosed oral 5 mg/kg, male SD rats, mean.

The term Cmax denotes the highest concentration seen after dosing. By AUC(0-t) is commonly meant exposure summed from dosing to a finite time, without extrapolation to infinity. The half-life is the time in which the quantity being followed falls by half. What is called Tmax is the time from dosing to the highest level.

Several values for one entry are separate records, joined by “and”; a condition that tells them apart may be missing. Equal entries are not always repeated.

`COc1cc(CCN)c(OC)cc1Br` [Example 2C-B, 4-bromo-2,5-dimethoxyphenethylamine]: the Tlast reads like this: (2C-B dosed IV 1 mg/kg, male SD rats, Mean* row (median calculated for Tlast)) 2 h; (2C-B dosed IV 1 mg/kg, male SD rats, individual animals) 2 h; under setting [2], 7.00 h and 24.0 h (2×); (2C-B dosed oral 5 mg/kg, male SD rats, mean) 18.3 h; (2C-B dosed oral 10 mg/kg, male SD rats, Mean* row (median calculated for Tlast)) 7.0 h; under setting [3], 2 h and 7 h (2×). Besides, the AUC0-inf was 72.0 ng·h/mL and 57.8 ng·h/mL under setting [1]; 92.0 ng·h/mL and 115 ng·h/mL and 193 ng·h/mL under setting [2]; 66.8 ng·h/mL and 26.1 ng·h/mL under setting [3]; 68.6 ng·h/mL (male, Sprague-Dawley, rat, plasma, iv, 1 mg/kg, AUC0-inf, 2C-B dosed IV 1 mg/kg, male SD rats, individual animals); 66.1 ng·h/mL (male, Sprague-Dawley, rat, plasma, iv, 1 mg/kg, AUC0-inf, 2C-B dosed IV 1 mg/kg, male SD rats, mean of 3 animals); 133 ng·h/mL (male, Sprague-Dawley, rat, plasma, po, 5 mg/kg, AUC0-inf, 2C-B dosed oral 5 mg/kg, male SD rats, mean). Moreover, the AUC0-inf (male, Sprague-Dawley, rat, plasma, po, 10 mg/kg, AUC0-inf, 2C-B dosed oral 10 mg/kg, male SD rats, mean) stood at 46.5 ng·h/mL. Further, the AUC0-last under setting [1] was 71.0 ng·h/mL and 56.8 ng·h/mL; the AUC0-last under setting [2] was 69.0 ng·h/mL and 103 ng·h/mL and 159 ng·h/mL; the AUC0-last under setting [3] was 40.9 ng·h/mL and 64.3 ng·h/mL and 23.8 ng·h/mL. Moreover, the Cmax is 85.0 ng/mL and 68.8 ng/mL under setting [1]; 29.5 ng/mL and 53.5 ng/mL under setting [2]; 29.4 ng/mL and 37.9 ng/mL and 11.3 ng/mL under setting [3]; 72 ng/mL (male, Sprague-Dawley, rat, plasma, iv, 1 mg/kg, Cmax, 2C-B dosed IV 1 mg/kg, male SD rats, individual animals); 75.3 ng/mL (male, Sprague-Dawley, rat, plasma, iv, 1 mg/kg, Cmax, 2C-B dosed IV 1 mg/kg, male SD rats, mean of 3 animals); 30.1 ng/mL (male, Sprague-Dawley, rat, plasma, po, 5 mg/kg, Cmax, 2C-B dosed oral 5 mg/kg, male SD rats, individual animals). In addition, the Cmax turned out to be 37.7 ng/mL (male, Sprague-Dawley, rat, plasma, po, 5 mg/kg, Cmax, 2C-B dosed oral 5 mg/kg, male SD rats, mean) and 26.2 ng/mL (male, Sprague-Dawley, rat, plasma, po, 10 mg/kg, Cmax, 2C-B dosed oral 10 mg/kg, male SD rats, mean). In addition, the T1/2 runs as follows: under setting [1], 0.338 h and 0.370 h; under setting [2], 4.18 h and 7.57 h and 12.2 h; under setting [3], 2.24 h. Moreover, the AUC(0-t) came to 65.6 ng·h/mL (male, Sprague-Dawley, rat, plasma, iv, 1 mg/kg, 2C-B dosed IV 1 mg/kg, male SD rats, individual animals); 64.5 ng·h/mL (male, Sprague-Dawley, rat, plasma, iv, 1 mg/kg, 2C-B dosed IV 1 mg/kg, male SD rats, mean of 3 animals); 110 ng·h/mL under setting [4]; 43 ng·h/mL (male, Sprague-Dawley, rat, plasma, po, 10 mg/kg, 2C-B dosed oral 10 mg/kg, male SD rats, mean). Also, the half-life by setting is: (male, Sprague-Dawley, rat, plasma, iv, 1 mg/kg, T1/2, 2C-B dosed IV 1 mg/kg, male SD rats, individual animals) 27.3 min; (male, Sprague-Dawley, rat, plasma, iv, 1 mg/kg, T1/2, 2C-B dosed IV 1 mg/kg, male SD rats, mean of 3 animals) 23.3 min; (male, Sprague-Dawley, rat, plasma, po, 5 mg/kg, T1/2, 2C-B dosed oral 5 mg/kg, male SD rats, mean) 479 min; (male, Sprague-Dawley, rat, plasma, po, 10 mg/kg, T1/2, 2C-B dosed oral 10 mg/kg, male SD rats, individual animals) 99 min; (male, Sprague-Dawley, rat, plasma, po, 10 mg/kg, T1/2, 2C-B dosed oral 10 mg/kg, male SD rats, mean) 116 min. The Tmax (male, Sprague-Dawley, rat, plasma, po, 5 mg/kg, 2C-B dosed oral 5 mg/kg, male SD rats, individual animals) turned out to be 30 min; the Tmax under setting [4] came to 30 min; the Tmax (male, Sprague-Dawley, rat, plasma, po, 10 mg/kg, 2C-B dosed oral 10 mg/kg, male SD rats, Mean* row (median calculated for Tmax)) was 30 min; the Tmax (male, Sprague-Dawley, rat, plasma, po, 10 mg/kg, 2C-B dosed oral 10 mg/kg, male SD rats, individual animals) is 60 min.
On to `COc1cc(CCNC(C)=O)c(OC)cc1Br` [Example 4, N-(4-bromo-2,5-dimethoxyphenethyl)acetamide], for which the “Plasma Concentrations of metabolite 2C-B Following Oral Dosing” value (“Plasma Concentrations” below) is listed as “BLQ (BLQ: Below Lower Limit of Quanification (0.5 ng/mL))” (prodrug oral 10 mg/kg, male SD rats, time 0.500 h, individual animals); “BLQ (BLQ: Below Lower Limit of Quanification (0.5 ng/mL))” (prodrug oral 10 mg/kg, male SD rats, time 0.500 h, mean); “BLQ (BLQ: Below Lower Limit of Quanification (0.5 ng/mL))” (prodrug oral 10 mg/kg, male SD rats, time 1.00 h, individual animals); “BLQ (BLQ: Below Lower Limit of Quanification (0.5 ng/mL))” (prodrug oral 10 mg/kg, male SD rats, time 1.00 h, mean); “BLQ (BLQ: Below Lower Limit of Quanification (0.5 ng/mL))” (prodrug oral 10 mg/kg, male SD rats, time 2.00 h, individual animals); “BLQ (BLQ: Below Lower Limit of Quanification (0.5 ng/mL))” (prodrug oral 10 mg/kg, male SD rats, time 2.00 h, mean). Besides, the “Plasma Concentrations” value reads like this: (prodrug oral 10 mg/kg, male SD rats, time 4.00 h, individual animals) “BLQ (BLQ: Below Lower Limit of Quanification (0.5 ng/mL))”; (prodrug oral 10 mg/kg, male SD rats, time 4.00 h, mean) “BLQ (BLQ: Below Lower Limit of Quanification (0.5 ng/mL))”; (prodrug oral 10 mg/kg, male SD rats, time 7.00 h, individual animals) “BLQ (BLQ: Below Lower Limit of Quanification (0.5 ng/mL))”; (prodrug oral 10 mg/kg, male SD rats, time 7.00 h, mean) “BLQ (BLQ: Below Lower Limit of Quanification (0.5 ng/mL))”; (prodrug oral 10 mg/kg, male SD rats, time 24.0 h, individual animals) “BLQ (BLQ: Below Lower Limit of Quanification (0.5 ng/mL))”; (prodrug oral 10 mg/kg, male SD rats, time 24.0 h, mean) “BLQ (BLQ: Below Lower Limit of Quanification (0.5 ng/mL))”.
For the compound `COc1cc(CCNC(=O)C(F)(F)F)c(OC)cc1Br` [Example 5, N-(4-bromo-2,5-dimethoxyphenethyl)-2,2,2-trifluoroacetamide], the “Plasma Concentrations” value is, setting by setting: (oral dosing of 2C-B prodrug, rat, time 0.500 h, individual animal) “BLQ (BLQ: Below Lower Limit of Quanification (0.5 ng/mL))”; (oral dosing of 2C-B prodrug, rat, time 0.500 h, mean) “BLQ (BLQ: Below Lower Limit of Quanification (0.5 ng/mL))”; (oral dosing of 2C-B prodrug, rat, time 1.00 h, individual animal) “BLQ (BLQ: Below Lower Limit of Quanification (0.5 ng/mL))”; (oral dosing of 2C-B prodrug, rat, time 1.00 h, mean) “BLQ (BLQ: Below Lower Limit of Quanification (0.5 ng/mL))”; (oral dosing of 2C-B prodrug, rat, time 2.00 h, individual animal) “BLQ (BLQ: Below Lower Limit of Quanification (0.5 ng/mL))”; (oral dosing of 2C-B prodrug, rat, time 2.00 h, mean) “BLQ (BLQ: Below Lower Limit of Quanification (0.5 ng/mL))”. The “Plasma Concentrations” value is, setting by setting: (oral dosing of 2C-B prodrug, rat, time 4.00 h, individual animal) “BLQ (BLQ: Below Lower Limit of Quanification (0.5 ng/mL))”; (oral dosing of 2C-B prodrug, rat, time 4.00 h, mean) “BLQ (BLQ: Below Lower Limit of Quanification (0.5 ng/mL))”; (oral dosing of 2C-B prodrug, rat, time 7.00 h, individual animal) “BLQ (BLQ: Below Lower Limit of Quanification (0.5 ng/mL))”; (oral dosing of 2C-B prodrug, rat, time 7.00 h, mean) “BLQ (BLQ: Below Lower Limit of Quanification (0.5 ng/mL))”; (oral dosing of 2C-B prodrug, rat, time 24.0 h, individual animal) “BLQ (BLQ: Below Lower Limit of Quanification (0.5 ng/mL))”; (oral dosing of 2C-B prodrug, rat, time 24.0 h, mean) “BLQ (BLQ: Below Lower Limit of Quanification (0.5 ng/mL))”.

The record behind these values is patent US20250049748A1, “ANALOGS OF 4-BROMO-2,5-DIMETHOXYPHENETHYLAMINE” (Terran Biosciences Inc., priority 2021, published 2025).
